Series [1] has as its target T1, NTD of NCR1 (Saccharomyces cerevisiae, UniProt Q12200).
T1 construct: residues 1–249, UniProt: Q12200; thrombin cleavage site (C); deca-histidine tag (C, cleaved yes); made in house; host or cells: Saccharomyces cerevisiae strain DSY-5
The experiment in a line: Fluorescence binding assay of NBD-lipids titrated with the NTD. How it is done: (§1) To investigate substrate candidates for the NTD of NCR1 and NPC2, biochemical assays were conducted with purified protein and fluorescent lipid analogs. The purified, delipidated NTD was titrated into NBD-tagged phospholipids and sphingolipids, in which the fluorophore is attached to the hydrophobic tail of the lipid molecules. An increase in signal is based on an enhanced molecular brightness of the NBD-moiety upon binding in a more hydrophobic environment ([28]). This increase in fluorescence correlates with the concentration of the NTD (Fig 3A), which can be used to infer the affinity of the NTD to a given NBD-lipid (Fig 3B–G). […] The measured increase in fluorescence of each NBD-lipid upon titrating the protein was used to determine an apparent dissociation constant (KD) according to a one-site binding model (Equation (1)).
(§2) Fluorescence binding assays were conducted using NBD-PC, NBD-PS, NBD-Cer, and NBD-Sph (Avanti Polar Lipids), and NBD-PI (Prof. Bütikofer), dissolved in ethanol. […] NBD-lipids were excited at 460 nm, and the emission spectra were recorded within a range of 490–600 nm. […] Emission spectra for NBD-lipids were measured as a control and subtracted from the sample emission spectra. The control cuvette was measured every time the sample was measured to correct the data for bleaching of NBD-Sph. […]

Series [2] deals with T2, NPC2 (Saccharomyces cerevisiae, UniProt Q12408).
T2 construct: residues 1–173, UniProt: Q12408; thrombin cleavage site (C); deca-histidine tag (C, cleaved yes); made in house; host or cells: Saccharomyces cerevisiae strain DSY-5
T2 sequence (Q12408 22-173): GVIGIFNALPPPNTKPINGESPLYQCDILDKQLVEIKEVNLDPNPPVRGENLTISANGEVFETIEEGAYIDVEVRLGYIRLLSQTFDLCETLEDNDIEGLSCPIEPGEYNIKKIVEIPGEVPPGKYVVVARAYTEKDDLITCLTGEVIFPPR
The series is described as follows: Fluorescence binding assay of NBD-lipids titrated with NPC2. As to the method:
as §1, §2

Series [3] deals with T1, NTD of NCR1. The series is described as follows: Competitive binding assays of edelfosine and NBD-Sph to the NTD. The conditions noted are these: for Kd: 1 μM NBD-Sph, read-out: apparent KD of NBD-Sph to the NTD. From the text:
Edelfosine is a synthetic lysophospholipid with cytotoxic antifungal effects. […] To investigate this, two competitive binding assays with edelfosine and NBD-Sph were designed (Fig 4). For the first assay, the NTD was saturated by NBD-Sph and the addition of edelfosine led to the exchange of the NTD-bound substrate, causing a drop in NBD-Sph fluorescence by about 50% (Fig 4A). […] To further evaluate the capability of NBD-Sph to participate in micelle formation, each emission spectrum was normalized with varying concentrations of edelfosine (Fig 4B). […] The shift in the wavelength of the emission peaks indicates a change in the environment of the fluorophore ([48], [49], [50]), likely indicating the transition of NBD-Sph from being free in solution to being incorporated into mixed micelles with edelfosine. Initially, emission peaks at ∼530 nm are observed, assigned to be NTD and NBD-Sph complexes (Fig 4C). […] Similarly, for binding of substrates at higher concentrations than their CMC, this binding assay is rather complex because of edelfosine exceeding its CMC. […] Because of these restrictions, the inhibitory constant for edelfosine is referred to as apparent, rather than a real, inhibitor constant (KI).
Based on the above observations, fixed amounts of edelfosine were added to NBD-Sph before titrating with the NTD in the second assay (Fig 4D).
For measuring the ability of edelfosine to outcompete NBD-Sph, 1 μM NBD-Sph and 1 μM NTD were mixed to form the interaction complex before adding increasing amounts of edelfosine. As a control, edelfosine was titrated into a cuvette containing exclusively NBD-Sph in buffer. To measure the competitive binding between NBD-Sph and edelfosine, 1 μM NBD-lipid in Tris buffer was mixed with either 0.1, 0.5, or 0.7 μM edelfosine in the sample cuvette before titration with the NTD.
Before determination of dissociation constants, the measurements were normalized. The protein–lipid binding measurements were normalized to the highest intensity in each dataset. For the competition assay, the data were normalized to the lowest intensity in the dataset to be able to fit all data to Equation (1), the full model for one-site binding for the saturated fraction, f ([27]):(1) RL/Rt=Rt+KD+Lt-Rt+KD+Lt^2-4⋅Rt⋅Lt/2⋅Rt=f
To determine the dissociation constant of edelfosine (referred to as KI) in the competition assay, it can be assumed that the binding is simple and that all added ligand is bound. In this case, the IC50 can be used to calculate a KI using Equation (2) on normalized data:(2) KI=IC50⋅KD/KD+L
The KD is the dissociation constant of the ligand, [L] is the concentration, and IC50 is the concentration of the inhibitor, where half of the ligand is inhibited.

Series [4] is described as follows: CMC measurement of NBD-lipids by fluorescence. It counts as physicochemical. The conditions noted are these: MES buffer pH 5.5, fluorescence 460/530 nm. How it is done: The CMC of NBD-Sph was measured by adding increasing concentrations of NBD-Sph to a cuvette containing MES buffer. Between measurements, the solution was mixed and incubated for 10 min. The highest measured concentration of NBD-Sph was 30 μM.
(§3) To determine the CMC, the sigmoid curve was fitted and adjusted to the normalized data: f(x)=l/1+e^−k⋅(x−x0)+b (3)
(§4) Here, l is the scaling of the y-axis, x0 represents the CMC, k determines the sharpness of the fitted curve, and b is the starting position on the y-axis.

A short description of series [5]: CMC measurement of edelfosine with Sudan Black B absorbance. The class given is physicochemical. The conditions noted are these: MES buffer pH 5.5, Sudan Black B absorbance 600 nm, n = 1. How it is done:
As edelfosine is not fluorescent, a different approach was used to measure its CMC. The hydrophobic dye, Sudan Black B, was used to stain micelles. The absorption of solutions consisting of MES buffer, Sudan Black, and increasing concentrations of edelfosine was measured using a spectrophotometer (Hitachi U-2010).
as §3, §4

The target of series [6] is T2, NPC2. The experiment in a line: In vitro liposome crosslinking assay of pac-lipids with NPC2. The class given is binding. The conditions noted are these: fivefold excess: 1 μM pac-lipid and 5 μM edelfosine in liposomes. How it is done: To compare with the interaction profile of the NTD, crosslinking assays were also performed with purified, delipidated NPC2 (Fig S4A and B). […] NPC2 crosslinks well with all tested pac-lipids but, as for the NTD, most strongly with pacChol (+UV/−UV ratio = 1.91). Robust and consistent crosslinking with pacSph (+UV/−UV ratio = 1.64), pacCer (+UV/−UV = 1.67), and pacPC (+UV/−UV = 1.63) were observed. The crosslinking efficiency for cholesterol and sphingosine analogs was higher for the NTD, whereas crosslinking with ceramide and PC analogs seemed stronger with NPC2.
Lipids from stock vials were dissolved in chloroform and mixed at the desired molar ratio. For in vitro crosslinking, most liposomes consisted of 88.5 mol% DOPC as carrier lipid, 10 mol% DOPS, and 1.5 mol% respective pac-lipid. The pac-lipids were incorporated into liposomes at low concentrations (1.5 mol%) to ensure homogenous distribution and avoid micelle formation. The solvent was evaporated in a rotary evaporator (Hei-VAP Core, Heidolph) for 30 min at 42°C at 150 rpm to create a thin lipid film. Lipid films were hydrated with filtered and degassed PBS (137 mM NaCl, 2.7 mM KCl, 10 mM Na2HPO4, 1.8 mM KH2PO4, pH 7.4). Solutions of hydrated lipids (with a total lipid concentration of 2 mM) were subjected to five freeze–thaw cycles in liquid nitrogen and warm water (42°C) to facilitate breakup of large structures and support formation of smaller multilamellar vesicles. Lipid solutions were stored at −20°C. Before use, liposomes were extruded by passing 20x through a 100-nm pore size polycarbonate filter (Nuclepore; Whatman) using a hand extruder (Avanti Polar Lipids). Extruded liposomes were stored at 4°C, protected from light, and used within 1–2 d.
Extruded liposomes were diluted in PBS until a final lipid concentration of 60 μM, including 1 μM pac-lipid. Purified proteins were added until a final concentration of 1.5 μM in a reaction volume of 100 μl. Protein–liposome mixtures were incubated in 0.5-ml Eppendorf tubes for 30 min at 37°C at 400 rpm (Comfort thermomixer, Eppendorf), then crosslinked (or not) by exposure to 365-nm UV light for 15 min at 4°C using a 100-W mercury lamp (Blak-Ray B-100AP). After crosslinking, the click reaction was performed by adding 0.7 μl of freshly prepared click mix into the sample tubes. The final concentrations of click reagents in sample tubes were 80 μM CuSO4 (Merck), 3 μM TBTA (Merck), 3 μM AF647-picolyl azide (Jena Bioscience), and 80 μM ascorbic acid (Merck). Fresh stock of ascorbic acid solution in water was prepared every time and added to the click mix immediately before starting the click reaction. Click reactions were allowed to proceed for 2 h at 37°C at 400 rpm with the thermomixer. Then, samples were concentrated in a vacuum evaporator for 30 min set to 30°C and supplemented with 4x Lämmli buffer (250 mM Tris, pH 6.8, 9.2% SDS, 40% glycerol, 0.2% bromophenol blue, 100 mM DTT). Samples were boiled for 5 min at 95°C, and clicked protein–lipid complexes were resolved by SDS–PAGE. After extensive destaining in a destain solution (65% water, 25% isopropanol, and 10% acetic acid), the AF647 (a structural analog of Alexa Fluor 647) and Coomassie images were acquired using the LI-COR Odyssey imaging system. Data were evaluated by subtracting background fluorescence, followed by comparing the AF647 signal between crosslinked and non-crosslinked samples, normalized to protein loading based on Coomassie staining. The resulting values are described as +UV/−UV ratios. Statistics were calculated with the Mann–Whitney U test.

On the set-up of series [7]: method as in PMID 19348755. The conditions noted are these: aggregated form; cited from earlier work.

Values joined by “and” are separate entries in the source; they are usually repeats but may differ in a detail not shown here. Identical values can stand only once. “Also recorded” adds a separate entry of the source.

T1 sequence (Q12200 20-249): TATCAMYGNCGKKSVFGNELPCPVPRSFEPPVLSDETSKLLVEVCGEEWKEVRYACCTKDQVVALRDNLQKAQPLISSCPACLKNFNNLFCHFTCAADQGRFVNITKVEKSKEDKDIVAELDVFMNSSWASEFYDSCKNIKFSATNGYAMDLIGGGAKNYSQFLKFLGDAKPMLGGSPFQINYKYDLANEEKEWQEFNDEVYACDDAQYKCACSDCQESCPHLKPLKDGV

As to `NC(CO)C(O)C=CCCCCCCCCCCCCCNc1ccc([N+](=O)[O-])c2nonc12` (stereo not drawn) [NBD-Sph], the Kd at NTD of NCR1 [1] (pH 5.5, 1 μM NBD-lipid, values for NBD-PC, NBD-PS, NBD-Cer (marked °) are apparent KD, above CMC) is ~250 nM and 250 nM; at NTD of NCR1 [1] (pH 7.5, 1 μM NBD-lipid), ~120 nM and 120 nM; at NPC2 [2] (pH 5.5, 1 μM NBD-lipid, values marked ° are apparent KD), ~580 nM and 580 nM; on NPC2 [2] (pH 7.5, 1 μM NBD-lipid) it was ~530 nM and 530 nM; at NTD of NCR1 [3] (0.0 μM edelfosine, pH 7.5) it was 120 nM and ~120 nM; on NTD of NCR1 [3] (0.1 μM edelfosine, pH 7.5), 120 ± 10 nM. In addition, the Kd is 160 ± 60 nM at NTD of NCR1 [3] (0.5 μM edelfosine, pH 7.5); 210 nM and ~210 nM on NTD of NCR1 [3] (0.7 μM edelfosine, pH 7.5). Further, the “critical micelle concentration (CMC)” value in series [4] is roughly 13 µM.
By IC50 is commonly meant the point on the concentration scale where inhibition reaches its midpoint. On to `CCCCCCCCCCCCCCCCCCOCC(COP(=O)([O-])OCC[N+](C)(C)C)OC` (stereo not drawn) [edelfosine], for which the half-inhibitory concentration (IC50) at NTD of NCR1 [3] (1 μM NBD-Sph mixed with 1 μM NTD, 0 to 4 μM edelfosine, pH 7.5, read-out: IC50 of edelfosine against NBD-Sph binding to the NTD) is 480 nM and 500 nM. For the same molecule, the “drop in NBD-Sph fluorescence on addition of edelfosine” value on NTD of NCR1 [3] (NTD saturated by NBD-Sph, pH 7.5) was “about 50%”. On NTD of NCR1 [3] (calculated from IC50 with Equation (2), apparent, edelfosine exceeds its CMC, read-out: apparent inhibitor constant (KI)), the Ki is roughly 50 nM. Further, the “critical micelle concentration (CMC)” value in series [5] was 0.7 µM and 0.715 µM. Also, the “effect of edelfosine on NPC2 crosslinking with pac-lipids” value at NPC2 [6] was “no noticeable inhibition of crosslinking; also recorded: no noticeable effect”.
Broadly, the pKa is the pH at which an ionisable group is half protonated. For `CCCCCCCCCCCCC/C=C/[C@@H](O)[C@@H](N)CO` [sphingosine], the pKa in series [7] was 6.61.

Source of the values: article PMC11512107, “Structural and biochemical analysis of ligand binding in yeast Niemann–Pick type C1–related protein” (Life Science Alliance, 2024).
